Measurements from US20220401408A1, “COMPOSITIONS AND METHODS FOR RESCUING RETINAL AND CHOROIDAL STRUCTURE AND FUNCTION” (AUCKLAND UNISERVICES LIMITED, priority 2019, published 2022).

Assays:
[1] = system: GFAP, Iba-1, Connexin43 (retinal inflammation markers); test: Immunohistochemical labelling of GFAP, Iba-1 and Connexin43 in retina of light damaged rats; format: in vivo, Sprague Dawley (SD) rats
Experimental: Retina Light Damage Model of Dry Age-Related Macular Degeneration—The intense light damage model was prepared and carried out as described in previous studies. Mat Nor N, Guo C X, Rupenthal ID, Chen Y S, Green C R, Acosta M L. Sustained Connexin43 Mimetic Peptide Release From Loaded Nanoparticles Reduces Retinal and Choroidal Photodamage. Invest Ophthalmol Vis Sci. 2018; 59:3682-93; Guo C X, Mat Nor M N, Danesh-Meyer H V, Vessey K A, Fletcher E L, O'Carroll S J, et al. Connexin43 Mimetic Peptide Improves Retinal Function and Reduces Inflammation in a Light-Damaged Albino Rat Model. Invest Ophthalmol Vis Sci. 2016; 57:3961-73; Guo C X, Tran H, Green C R, Danesh-Meyer H V, Acosta M L. Gap junction proteins in the light-damaged albino rat. Mol Vis. 2014; 20:670-82; Noell W K, Walker V S, Kang B S, Berman S. Retinal damage by light in rats. Invest Ophthalmol. 1966; 5:450-73. The light damage rat model was selected as it allows direct comparison with this and other drugs. Kim Y, Griffin J M, Nor M N M, Zhang J, Freestone P S, Danesh-Meyer H V, et al. Tonabersat Prevents Inflammatory Damage in the Central Nervous System by Blocking Connexin43 Hemichannels. Neurotherapeutics. 2017; 14:1148-65; Mat Nor N, Guo C X, Rupenthal ID, Chen Y S, Green C R, Acosta M L, supra; Guo C X, Mat Nor M N, Danesh-Meyer H V, Vessey K A, Fletcher E L, O'Carroll S J, et al., supra. […] All experimental procedures were approved by the University of Auckland Animal Ethics Committee, approval No. 001462 and comply with the Association for Research in Vision and Ophthalmology (ARVO) statement for the use of animals in eye research. Six to eight-week old albino Sprague Dawley (SD) rats (200-250 g; male or female) were used. Adult SD rats were exposed to continuous bright light for 24 hours, consistently starting at 9:00 am to minimize possible time-of-day variability. Light exposure was to two animals at a time to prevent rats from taking cover using each other as a shield. The LD protocol and intervention was repeated until the number of individuals for each dose group was obtained (n=7 per group). The light luminance was 2700 lux, generated using fluorescent lamps (Philips Master TLD 18W/965; Koninklijke Philips Electronics N.V., China) directly above the animal cages. The lamps were cool and emitted broadband light, from 380 to 760 nm wavelength, with the average intensity at the top of the cage being 120 W/m2. Animals were free to move within the cage with access to food and water ad libidum. Baseline electroretinography (ERG) readings and optical coherence tomography (OCT) images were collected prior to the light damage. After light exposure, animals were returned to normal light-dark cycle conditions (12 hours light, 174 lux and 12 hours darkness, <62 lux) for 24 hours, 1 week or 2 weeks (and for one group 3 months).
Tonabersat treatment of light damaged rats—LD rats were randomly assigned to low, middle or high dose of tonabersat (n=7 per group). The mixture of tonabersat in peanut butter was prepared fresh for each experiment. Three oral tonabersat doses were tested (n=7 per group) with follow up to 2 weeks post-injury, and the highest dose group then split with three animals taken for histological analysis, and four animals followed to 3 months post-injury. There was a ten-animal vehicle only control group. The group of rats that were kept for 3 months were maintained in separate cages for drug or vehicle-treated animals, but were kept under the same light conditions. Tonabersat was fed to animals in peanut butter at 0.26 mg/kg (on average 0.08 mg delivered, estimated circulating concentration 10 μM), 0.8 mg/kg (average of 0.24 mg delivered; 30 μM circulating) or 2.4 mg/kg (on average 0.72 mg delivered; 90 μM circulating) following consideration of previous unsuccessful human trial dosing levels. Silberstein S D. Tonabersat, a novel gap-junction modulator for the prevention of migraine. Cephalalgia. […]

[2] = Body weight of hyperglycemic rats; format: in vivo, SD rats (spontaneously hyperglycemic strain); settings: 0.28 mg/kg once daily 14 days; week 8
Excerpt: Hyperglycemic Rat Diabetic Retinopathy Model—A spontaneously hyperglycemic strain of SD rats, which developed clinical signs of diabetic retinopathy within 4 weeks of birth were identified and isolated within the Vernon Jansen Animal Research Unit, Faculty of Medical and Health Sciences at the University of Auckland. The identification of these rats presenting with hyperglycemia and microaneurysms provided an opportunity to treat a complex, chronic disease model and assess the treatment effect based upon objective, measurable endpoints, despite lacking precise information on the etiology of the disease. Inbreeding was carried out over three generations and eyes were screened for abnormalities between 4-8 weeks of age. […]
Ten rats per group were the selected (10 normal SD and 10 hyperglycemic) grown to 5 weeks of age and assessed using OCT and ERG. […] All animals were assessed again using ERG and OCT at 8 weeks of age before euthanizing animals and removing the eyes for immunohistochemical analysis. […] In summary, normal SD and hyperglycemic rats were analyzed with OCT and ERG at 5 weeks of age; the hyperglycemic rats were then split into two groups and fed the vehicle or tonabersat for 14 days during weeks 6 and 7 of age. At week 8, animals were again assessed with ERG and OCT and tissues collected for immunohistochemical analysis. […]

[3] = all tonabersat treated groups, p<0.001

For `CC(=O)c1ccc2c(c1)[C@H](NC(=O)c1ccc(F)c(Cl)c1)[C@H](O)C(C)(C)O2` [tonabersat, N-[(3S,4S)-6-acetyl-3-hydroxy-2,2-dimethyl-3,4-dihydrochromen-4-yl]-3-chloro-4-fluorobenzamide], the Iba-1 reactivity ([1]; 0.26 mg/kg) was “slightly higher level”, the GFAP labelling ([1]; 0.26 mg/kg, significantly less than vehicle) was “slight increase” and the “GFAP immunoreactivity in the retina compared to vehicle” value ([1]; 0.8 mg/kg) was “did not increase”. For the same compound, the “GFAP immunoreactivity in the retina compared to vehicle” value ([1]; 2.4 mg/kg) was “did not increase”, the “Connexin43 immunoreactivity in the retina compared to vehicle” value ([1]; all three tonabersat doses) was “less” and the “Connexin43 level, image quantification vs vehicle controls” value [1, 3] was “significantly less”. For the same compound, the “GFAP level, image quantification vs vehicle controls” value [1, 3] was “significantly less”, the “Iba-1 level, image quantification vs vehicle controls” value [1, 3] was “significantly less” and the “Iba-1 immunolabelled cells in inner plexiform layer compared to vehicle” value ([1]; drug treated groups (all three doses)) was “less active”. For the same compound, the “body weight, treated vs untreated hyperglycemic rats” value [2] was “no difference”.
